Reference: paper PMC5116814, “Potent, Reversible, and Specific Chemical Inhibitors of Eukaryotic Ribosome Biogenesis” (Cell, 2016)

Legend:
Assay type in all cases: biochemical
Mdn1 (Midasin) [1] = molecular target: T1, Mdn1 (Midasin) (Schizosaccharomyces pombe, UniProt O94248); assay: ATP hydrolysis by purified enzyme (radioactive and NADH-coupled ATPase assays)
T1 construct: recombinant full-length Mdn1 (hexahistidine-tagged, insect cells)

Mdn1 (Midasin) [2] = molecular target: T1, Mdn1 (Midasin); assay: NADH-coupled and radioactive ATPase assays
Mdn1 (Midasin) [3] = molecular target: T1, Mdn1 (Midasin); assay: NADH-coupled steady-state ATPase assay, dose-response (saturates at […] inhibition)

T1 sequence (O94248 whole entry): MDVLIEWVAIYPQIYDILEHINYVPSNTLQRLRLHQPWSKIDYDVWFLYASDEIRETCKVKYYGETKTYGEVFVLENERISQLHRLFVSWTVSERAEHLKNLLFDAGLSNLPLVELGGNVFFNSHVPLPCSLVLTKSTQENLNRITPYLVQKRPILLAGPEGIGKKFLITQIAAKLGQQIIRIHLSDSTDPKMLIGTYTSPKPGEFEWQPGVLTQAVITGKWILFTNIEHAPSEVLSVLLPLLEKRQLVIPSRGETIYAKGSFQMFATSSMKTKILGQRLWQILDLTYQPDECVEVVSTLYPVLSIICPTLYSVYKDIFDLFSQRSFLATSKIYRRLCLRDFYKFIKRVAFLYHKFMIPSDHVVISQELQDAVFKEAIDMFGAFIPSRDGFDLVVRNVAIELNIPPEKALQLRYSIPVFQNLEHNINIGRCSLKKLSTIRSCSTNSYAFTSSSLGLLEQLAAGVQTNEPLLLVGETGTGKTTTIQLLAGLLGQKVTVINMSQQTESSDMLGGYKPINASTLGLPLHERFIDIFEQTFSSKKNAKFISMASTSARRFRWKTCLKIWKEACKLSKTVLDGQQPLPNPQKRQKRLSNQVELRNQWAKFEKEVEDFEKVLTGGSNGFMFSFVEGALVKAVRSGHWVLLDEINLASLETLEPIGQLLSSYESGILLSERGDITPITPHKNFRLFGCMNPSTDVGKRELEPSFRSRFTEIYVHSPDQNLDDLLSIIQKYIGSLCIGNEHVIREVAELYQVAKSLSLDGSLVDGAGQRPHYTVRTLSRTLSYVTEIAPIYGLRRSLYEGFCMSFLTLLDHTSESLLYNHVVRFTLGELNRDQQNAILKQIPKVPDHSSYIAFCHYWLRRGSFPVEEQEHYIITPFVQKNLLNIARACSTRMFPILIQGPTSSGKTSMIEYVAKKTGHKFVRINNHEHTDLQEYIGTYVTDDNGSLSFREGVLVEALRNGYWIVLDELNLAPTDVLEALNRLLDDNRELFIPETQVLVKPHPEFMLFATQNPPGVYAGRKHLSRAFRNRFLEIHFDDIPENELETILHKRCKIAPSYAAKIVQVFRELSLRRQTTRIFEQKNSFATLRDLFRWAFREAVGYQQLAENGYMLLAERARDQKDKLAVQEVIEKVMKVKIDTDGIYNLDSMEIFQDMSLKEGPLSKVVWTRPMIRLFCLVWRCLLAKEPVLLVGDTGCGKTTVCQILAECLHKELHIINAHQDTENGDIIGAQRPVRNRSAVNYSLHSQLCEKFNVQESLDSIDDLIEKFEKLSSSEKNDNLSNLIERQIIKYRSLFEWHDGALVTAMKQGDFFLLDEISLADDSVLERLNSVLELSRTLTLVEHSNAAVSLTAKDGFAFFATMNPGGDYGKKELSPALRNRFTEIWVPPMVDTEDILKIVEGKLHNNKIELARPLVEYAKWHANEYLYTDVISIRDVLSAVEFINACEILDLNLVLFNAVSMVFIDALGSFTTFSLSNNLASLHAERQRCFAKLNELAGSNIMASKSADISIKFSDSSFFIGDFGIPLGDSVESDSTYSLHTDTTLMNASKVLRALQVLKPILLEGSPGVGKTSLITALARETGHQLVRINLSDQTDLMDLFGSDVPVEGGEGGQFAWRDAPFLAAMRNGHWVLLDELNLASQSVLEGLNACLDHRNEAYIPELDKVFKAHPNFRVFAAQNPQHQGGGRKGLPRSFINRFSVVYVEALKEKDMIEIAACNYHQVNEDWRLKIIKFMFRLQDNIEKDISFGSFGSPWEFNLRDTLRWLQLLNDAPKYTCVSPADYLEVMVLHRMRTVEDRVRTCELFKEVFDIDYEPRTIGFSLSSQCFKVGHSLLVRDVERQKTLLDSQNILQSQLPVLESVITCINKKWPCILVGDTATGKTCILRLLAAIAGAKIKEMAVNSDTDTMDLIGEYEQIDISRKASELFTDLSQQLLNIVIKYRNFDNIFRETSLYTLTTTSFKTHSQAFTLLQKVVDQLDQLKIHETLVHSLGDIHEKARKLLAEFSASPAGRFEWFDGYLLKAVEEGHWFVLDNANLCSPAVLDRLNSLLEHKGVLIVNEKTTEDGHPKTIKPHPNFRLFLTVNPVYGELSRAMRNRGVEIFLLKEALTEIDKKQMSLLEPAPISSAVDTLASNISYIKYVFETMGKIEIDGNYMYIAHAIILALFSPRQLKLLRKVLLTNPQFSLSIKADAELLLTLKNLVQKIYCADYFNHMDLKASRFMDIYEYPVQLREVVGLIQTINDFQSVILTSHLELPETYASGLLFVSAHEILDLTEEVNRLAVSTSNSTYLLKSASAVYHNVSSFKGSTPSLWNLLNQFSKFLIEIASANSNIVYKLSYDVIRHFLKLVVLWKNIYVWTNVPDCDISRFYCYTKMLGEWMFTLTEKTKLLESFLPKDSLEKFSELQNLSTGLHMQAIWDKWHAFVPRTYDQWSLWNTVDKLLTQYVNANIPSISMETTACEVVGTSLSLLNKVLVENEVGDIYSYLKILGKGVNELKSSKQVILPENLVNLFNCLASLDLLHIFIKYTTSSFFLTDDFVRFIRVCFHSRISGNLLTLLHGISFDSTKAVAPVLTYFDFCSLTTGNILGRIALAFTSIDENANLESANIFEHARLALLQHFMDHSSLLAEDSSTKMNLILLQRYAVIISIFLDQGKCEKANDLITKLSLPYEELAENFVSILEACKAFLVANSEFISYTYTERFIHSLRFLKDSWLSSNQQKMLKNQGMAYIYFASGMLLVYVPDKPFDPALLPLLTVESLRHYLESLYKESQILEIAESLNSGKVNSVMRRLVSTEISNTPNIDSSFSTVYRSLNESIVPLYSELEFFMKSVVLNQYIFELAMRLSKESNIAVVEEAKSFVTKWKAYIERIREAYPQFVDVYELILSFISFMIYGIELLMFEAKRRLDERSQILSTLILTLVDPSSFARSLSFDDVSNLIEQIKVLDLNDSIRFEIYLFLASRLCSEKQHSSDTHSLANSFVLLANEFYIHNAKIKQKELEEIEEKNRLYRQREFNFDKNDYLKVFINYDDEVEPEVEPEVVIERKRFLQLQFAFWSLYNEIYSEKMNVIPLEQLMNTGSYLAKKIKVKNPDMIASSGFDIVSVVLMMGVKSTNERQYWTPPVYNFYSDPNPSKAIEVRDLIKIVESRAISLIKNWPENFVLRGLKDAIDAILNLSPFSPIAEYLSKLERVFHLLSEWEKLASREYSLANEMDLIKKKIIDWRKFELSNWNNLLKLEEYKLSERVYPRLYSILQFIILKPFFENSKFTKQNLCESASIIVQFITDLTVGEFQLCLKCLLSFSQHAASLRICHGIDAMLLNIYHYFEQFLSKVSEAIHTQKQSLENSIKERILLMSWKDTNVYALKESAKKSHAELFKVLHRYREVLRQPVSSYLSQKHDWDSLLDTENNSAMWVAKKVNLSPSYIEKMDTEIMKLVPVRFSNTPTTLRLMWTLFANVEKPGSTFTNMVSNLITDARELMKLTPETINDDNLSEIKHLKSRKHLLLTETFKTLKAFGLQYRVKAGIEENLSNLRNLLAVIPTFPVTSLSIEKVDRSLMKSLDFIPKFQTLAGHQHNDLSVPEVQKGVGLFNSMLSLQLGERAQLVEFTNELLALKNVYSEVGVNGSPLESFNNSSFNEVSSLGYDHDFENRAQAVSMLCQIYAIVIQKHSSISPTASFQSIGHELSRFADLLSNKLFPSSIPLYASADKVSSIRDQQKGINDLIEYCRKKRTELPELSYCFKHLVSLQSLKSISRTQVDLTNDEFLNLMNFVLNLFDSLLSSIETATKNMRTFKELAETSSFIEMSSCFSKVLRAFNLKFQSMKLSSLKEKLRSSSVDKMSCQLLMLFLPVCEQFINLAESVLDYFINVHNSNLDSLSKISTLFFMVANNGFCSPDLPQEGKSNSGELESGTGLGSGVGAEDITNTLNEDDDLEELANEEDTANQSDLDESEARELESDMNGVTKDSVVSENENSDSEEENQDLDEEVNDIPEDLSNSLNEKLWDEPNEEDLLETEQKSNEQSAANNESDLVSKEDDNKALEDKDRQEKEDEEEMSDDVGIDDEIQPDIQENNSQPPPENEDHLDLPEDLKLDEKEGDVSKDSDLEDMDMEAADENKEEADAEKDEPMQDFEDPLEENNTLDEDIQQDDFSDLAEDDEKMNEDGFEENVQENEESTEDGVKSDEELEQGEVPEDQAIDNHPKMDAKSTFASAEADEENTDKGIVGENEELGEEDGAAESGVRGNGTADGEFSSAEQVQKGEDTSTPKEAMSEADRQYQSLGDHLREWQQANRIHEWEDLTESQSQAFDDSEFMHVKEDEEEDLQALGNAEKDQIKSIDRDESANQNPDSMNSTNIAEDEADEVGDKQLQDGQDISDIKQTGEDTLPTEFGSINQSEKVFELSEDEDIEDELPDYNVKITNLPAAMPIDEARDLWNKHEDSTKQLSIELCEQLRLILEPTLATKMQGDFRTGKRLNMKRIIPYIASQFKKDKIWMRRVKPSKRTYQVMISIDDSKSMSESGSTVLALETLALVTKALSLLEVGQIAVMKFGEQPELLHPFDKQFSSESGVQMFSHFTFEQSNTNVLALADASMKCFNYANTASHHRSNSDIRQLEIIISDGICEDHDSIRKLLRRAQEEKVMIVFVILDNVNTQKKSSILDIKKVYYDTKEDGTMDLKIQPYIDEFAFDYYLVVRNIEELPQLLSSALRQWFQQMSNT

**Q.** How did the “ATP hydrolysis by purified enzyme (radioactive and NADH-coupled ATPase assays)” value (Mdn1 (Midasin) [1]) turn out when `Nc1ncnc2c1ncn2[C@@H]1O[C@H](COP(=O)(O)OP(=O)(O)OP(=O)(O)O)[C@@H](O)[C@H]1O` [ATP] was run?
**A.** ~ 1.0 s^–1 (specific activity at 1 mM MgATP)

**Q.** `C=C(C)CSc1nnc2c(n1)[nH]c1ccccc12` [compound 1, Rbin-1] was tested. Which inhibition at 1 µM (Mdn1 (Midasin) [2]) did it give?
**A.** ~40%

**Q.** `C=C(C)CSc1nnc2c(n1)[nH]c1cc(Br)ccc12` [compound 15, Rbin-2] was tested. Which EC50 (Mdn1 (Midasin) [3]) did it give?
**A.** ~0.3 µM
